The values below come from PubChem BioAssay AID720589 (Broad Institute, 2013).

Molecules are shown by their SMILES. Calls of active or inactive are those of the source.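 The calls were made as follows: active = fitted curve drops below -35% activity at a concentration within twice the top valid tested dose; inconclusive = no clear call, values can overlap the other calls; inactive = signal rising instead of falling, among other cases.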

One experiment can be described thus: HepG2 hepatoma cell cytotoxicity, dose response, cytotoxicity control, CellTiter-Glo luminescence, cherry-pick, set 3 (AID 720589). As to conditions: HepG2 viability, ATP luminescence (CellTiter-Glo), 72 h; at 0.011 µM; stronger effect = lower value; 0% = untreated, negative = ATP loss.
Consider `CC(=O)Nc1ccc(OCC(=O)N(CC(C)C)C2CCS(=O)(=O)C2)cc1` (stereo not given), for which the max activity is 42.5% (inactive).

Regarding `COc1ccc(C(=O)Nc2cccc(C(=O)N/N=C/c3ccc(OC)cc3OC)c2)cc1`, the max activity was 23.8% (inactive).

Consider `CC(=O)Nc1cccc(-c2ccnc3c2CC(C)(C(=O)NCc2ccc(N(C)C)cc2)O3)c1` (stereo not given), for which the max activity is 32.9% (inactive).

Take `CC(C)c1ccc(OCc2cccc(C(=O)N/N=C/c3cccnc3)c2)cc1`: the max activity was 8.88% (inactive).

With `Cc1cc(C(=O)NNC(=O)c2ccc(S(=O)(=O)N(C)C)cc2)c(C)o1`, the max activity is 20% (inactive).

Turning to `CCOc1ccc(-c2noc(CCC(=O)O)n2)cc1`, the max activity is 7.93% (inactive).

As for `C(=C\c1ccc(C2[C@H]3CNC[C@@H]2N3Cc2ccccn2)cc1)/c1ccccc1` (stereo not given in full), the max activity was -23.3% (inactive).

Take `N/C(=C\C(=O)c1cc(Cl)ccc1O)C(Cl)(Cl)Cl`: the max activity was -18.1% (inactive).

For the molecule `CCNC(=O)c1cccc(S(=O)(=O)N2CCCCCC2)c1`, the max activity was -31.4% (inactive).

Turning to `COc1ccc(C(=O)OCC(=O)Nc2ccc(Cl)c(C(F)(F)F)c2)c(OC)c1OC`, the max activity is -15% (inactive).

Take `COc1ccccc1NS(=O)(=O)c1cc(NC(=O)c2cc3ccccc3oc2=O)ccc1C`: the max activity was -20.4% (inactive).

Take `O=C(CCCCl)Nc1nc(-c2ccc3c(c2)OCCO3)cs1`: the max activity was -25% (inactive).

Take `COC(=O)C[C@@H]1CC[C@@H]2[C@H](COc3ccc(NC(=O)c4cc(F)cc(F)c4)cc3C(=O)N2C)O1`: the max activity is -46.8% (inactive).

Still in this experiment, the particulars now being: HepG2 viability, ATP luminescence (CellTiter-Glo), 72 h; at 0.035 µM; stronger effect = lower value; 0% = untreated, negative = ATP loss.
`Nc1ccc2oc(-c3cc(Br)ccc3Cl)nc2c1`: the max activity is -30.5% (inactive).

Turning to `N#CC1C=Cc2c(ccc3ccccc23)N1C(=O)c1ccccc1` (stereo not given), the max activity is -32.3% (inactive).

Take `O=C(O)CN1C(=O)/C(=C\c2ccccc2OCc2ccc(Cl)cc2Cl)SC1=S`: the max activity is -18.9% (inactive).

As for `O=C1C(=O)N(Cc2cccs2)c2ccccc21`, the max activity was -28.1% (inactive).

The experiment is the same for the next values; noted with them: HepG2 viability, ATP luminescence (CellTiter-Glo), 72 h; at 0.1 µM; stronger effect = lower value; 0% = untreated, negative = ATP loss.
Consider `Cc1cc(C)cc(OCC(=O)OCC(=O)Nc2cc(S(=O)(=O)N3CCOCC3)ccc2C)c1`, for which the max activity was -15.3% (inactive).

On to `CCn1c(C)cc(C(=O)CN2C(=O)c3ccccc3S2(=O)=O)c1C`, for which the max activity was -11.5% (inactive).

Regarding `Cc1ccc(C(C(=O)NCc2ccco2)N(C(=O)CNC(=O)c2cccs2)c2c(C)cc(C)cc2C)cc1` (stereo not given), the max activity is -27% (inactive).

Turning to `CCCCN=C(NNc1ccc(Br)cc1)C(=O)OCC`, the max activity was -31% (inactive).

As for `Cc1noc(C)c1C(=O)Nc1sccc1C(N)=O`, the max activity is -22.6% (inactive).

Take `Cc1ccc(S(=O)(=O)N(C)C[C@@H]2Oc3cc(C#Cc4ccncc4)ccc3S(=O)(=O)N([C@@H](C)CO)C[C@H]2C)cc1`: the max activity was -24.6% (inactive).

For the molecule `COCCOC(=O)N1C(=O)[C@@]2(c3cc(C#CCC(C(=O)OC)C(=O)OC)ccc31)[C@H](c1ccccc1OCCO)N1[C@H](c3ccccc3)[C@H](c3ccccc3)OC(=O)[C@H]1[C@@H]2C(=O)N1CCN(c2ncccn2)CC1`, the max activity was -30.6% (inactive).

For the molecule `COc1ccc(OC)c(-c2cc(C(F)(F)F)c3c(n2)sc2c(O)cc(=O)[nH]c23)c1`, the max activity is -37% (inactive).

Regarding `Cc1sc2nc(CN3CCC(C)CC3)nc(Cl)c2c1C`, the max activity is 16.4% (inactive).

With `O=C(O)c1ccc(N/N=C/c2cc(Br)cs2)cc1`, the max activity is -24.3% (inactive).

As for `C[C@@H]1CN([C@@H](C)CO)S(=O)(=O)c2ccc(C#CCN(C)C)cc2O[C@@H]1CN(C)Cc1ccncc1`, the max activity was -45% (inactive).

The same experiment, now with this note: HepG2 viability, ATP luminescence (CellTiter-Glo), 72 h; at 0.3 µM; stronger effect = lower value; 0% = untreated, negative = ATP loss.
For the molecule `COc1ccc(S(=O)(=O)N2CCCc3nc(-c4ccc(F)cc4)ccc32)cc1`, the max activity was -23.5% (inactive).

On to `CCc1c(C(=O)NN2C(=O)C3CCCCC3C2=O)csc1C` (stereo not given), for which the max activity is -31.9% (inactive).

As for `CCOc1ccc(NC(=O)C(=O)N/N=C\c2ccc(CNS(=O)(=O)c3ccccc3)o2)cc1`, the max activity is -36.6% (inactive).

With `C[C@@H]1CN([C@H](C)CO)C(=O)c2cc(NS(=O)(=O)c3ccc(Cl)cc3)ccc2O[C@@H]1CN(C)Cc1ccc(Cl)c(Cl)c1`, the max activity is -36.6% (inactive).

As to `O=C(NC1CCCC1)C(c1ccccc1)n1c(CSCCOc2ccccc2)nc2ccccc21` (stereo not given), the max activity was -34.7% (inactive).

Turning to `CC(C)(C)C(=O)Nc1ccc(N=Nc2ccccc2)cc1`, the max activity is -12.3% (inactive).

For the molecule `COC(=O)C[C@@H]1CC[C@@H]2[C@H](COc3ccc(NC(=O)c4cc(C)on4)cc3C(=O)N2C)O1`, the max activity was -20% (inactive).

The experiment is the same for the next values; noted with them: HepG2 viability, ATP luminescence (CellTiter-Glo), 72 h; at 0.9 µM; stronger effect = lower value; 0% = untreated, negative = ATP loss.
In the case of `O=C(Nc1ccc(NC(=O)c2cc3ccccc3o2)cc1)c1ccc2c(c1)OCCO2`, the max activity was -30.6% (inactive).

Regarding `Cc1ccc(NC(=O)COC(=O)c2ccc3c(c2)OCO3)cc1S(=O)(=O)N1CCCCC1`, the max activity is -30.2% (inactive).

On to `S=c1[nH]nc(-c2cc(-c3ccccc3)n[nH]2)n1/N=C/C(Br)=C/c1ccccc1`, for which the max activity is -17.9% (inactive).

Regarding `COc1cc(/C=N\Nc2nc(-c3ccc(C)cc3)c(NC(C)=O)s2)ccc1O`, the max activity is -20.6% (inactive).

On to `CCc1cnc(N2[C@H](C#N)[C@H](c3ccc(C#Cc4ccccc4F)cc3)[C@H]2CO)s1`, for which the max activity is 65.8% (inactive).

Staying with this experiment, now noted: HepG2 viability, ATP luminescence (CellTiter-Glo), 72 h; at 2.85 µM; stronger effect = lower value; 0% = untreated, negative = ATP loss.
Regarding `COc1ccc(NC(=O)c2cc3ccccc3oc2=O)cc1`, the max activity is -36.9% (inactive).

Regarding `CCOc1ccc(-c2cc(CCCC(=O)NCc3ccc(C)cc3)no2)cc1`, the max activity was -24.4% (inactive).

Regarding `Cc1ccsc1/C=N/Nc1cccc(C(=O)O)c1`, the max activity is -32.4% (inactive).

Staying with this experiment, now noted: HepG2 viability, ATP luminescence (CellTiter-Glo), 72 h; at 8 µM; stronger effect = lower value; 0% = untreated, negative = ATP loss.
As for `COC(=O)C[C@@H]1CC[C@@H]2[C@H](COc3ccc(NC(=O)c4ccccc4)cc3C(=O)N2C)O1`, the max activity was -19.1% (inactive).

Take `COc1cc(/C=N/NS(=O)(=O)c2ccc(C)cc2)ccc1OCc1cccc(C(=O)O)c1`: the max activity is -15.9% (inactive).

Regarding `COc1ccc(C2=Nn3c([n+](C)c4ccccc43)SC2)cc1`, the max activity is -28.7% (inactive).

On to `CN(C)Cc1c(O)ccc2c1O/C(=C\C=C\c1ccccc1)C2=O`, for which the max activity is -26.2% (inactive).

For the molecule `Cc1ccc(Cl)cc1NC(=O)Cn1cc(C(F)(F)F)cc(Cl)c1=O`, the max activity is -28.6% (inactive).

As for `COc1ccc2oc(-c3ccccc3)cc(=O)c2c1`, the max activity is 25.1% (inactive).

The experiment is the same for the next values; noted with them: HepG2 viability, ATP luminescence (CellTiter-Glo), 72 h; at 23.5 µM; stronger effect = lower value; 0% = untreated, negative = ATP loss.
Consider `O=S(=O)(c1ccc(F)cc1)N1C[C@H]2[C@@H](c3ccccc31)[C@H](CO)N2Cc1ccccc1Cl`, for which the max activity is -21.9% (inactive).

Consider `C[C@H]1CN([C@@H](C)CO)C(=O)Cc2cc(NC(=O)CCCCCC(=O)Nc3ccccc3N)ccc2O[C@H]1CN(C)Cc1ccc(Cl)c(Cl)c1`, for which the max activity is -29.2% (inactive).

The same experiment, now with this note: HepG2 viability, ATP luminescence (CellTiter-Glo), 72 h; at 26 µM; stronger effect = lower value; 0% = untreated, negative = ATP loss.
For the molecule `CC(NC(=O)c1ccco1)c1nc(-c2ccc(C(C)(C)C)cc2)no1` (stereo not given), the max activity is -24.1% (inactive).

`CN1c2ccc(-c3ccc(C#N)cc3)cc2[C@H]2[C@H](CCN2S(=O)(=O)c2cccc(F)c2)[C@@H]1CO`: the max activity is 33.3% (inactive).

With `N#C[C@H]1N[C@H](CO)[C@H]1c1ccc(C#Cc2ccc(F)cc2)cc1`, the max activity is -31.2% (inactive).

With `O=C(N/N=C/c1ccc[nH]1)c1cc(-c2ccc(Cl)cc2)nc2ccccc12`, the max activity was -21.3% (inactive).

Regarding `O=C(/C=C/c1ccc(Cl)cc1Cl)N(Cc1ccc(Cl)cc1)C1CCS(=O)(=O)C1` (stereo not given), the max activity is 14% (inactive).

For the molecule `CC1=NN(c2ccccc2)C(=O)/C1=C\C=C\c1ccccc1`, the max activity was -54.8% (inactive).

On to `COc1ccc(Cl)cc1S(=O)(=O)Nc1ccc2c(c1)n(C)c(=O)n2C`, for which the max activity is -15.6% (inactive).

Regarding `CCOc1cc(N2CCC(O)CC2)ccc1Nc1ncc2c(n1)N(C)c1ccccc1C(=O)N2C`, the max activity was -18.4% (inactive).

Turning to `O=C(NCc1cccnc1)C1Cc2c(-c3ccc(Cl)cc3)ccnc2O1` (stereo not given), the max activity is -18.3% (inactive).

On to `O=C(O)c1ccc(N/N=C/c2ccc(OC(=O)c3cccc(Cl)c3)cc2)cc1`, for which the max activity is -33.2% (inactive).

With `CCCN(C)C[C@H]1Oc2ncc(-c3ccccc3)cc2C(=O)N([C@@H](C)CO)C[C@H]1C`, the max activity was 18.2% (inactive).

For the molecule `COc1cc2oc3cc(C#Cc4ccc(N)cc4)ccc3c(=O)c2cc1OC`, the max activity is -39.4% (inactive).

In the case of `Cc1ccsc1/C=N/Nc1ccc(C(=O)O)cc1`, the max activity was -27.6% (inactive).

`COc1cccc(OC)c1C(=O)Nc1cc(C)nn1-c1nc2ccccc2[nH]1`: the max activity was -39.9% (inactive).

For `O=C(CNC(c1ccccc1)c1ccccc1)Nc1ccccc1-c1ccccc1`, the max activity was 10.7% (inactive).

For the molecule `C[C@@H]1CN([C@@H](C)CO)C(=O)Cc2cc(N(C)C)ccc2O[C@@H]1CN(C)Cc1ccccc1`, the max activity was -20.7% (inactive).

In the case of `COc1ccc(C2=NNC(=Nc3cc(S(=O)(=O)N(C)C)ccc3C)SC2)c(OC)c1`, the max activity was -17.3% (inactive).

Turning to `C[C@@H]1CN([C@@H](C)CO)C(=O)Cc2cc(NC(=O)Cn3cnnn3)ccc2O[C@@H]1CN(C)Cc1ccc(Oc2ccccc2)cc1`, the max activity is 25% (inactive).

Regarding `O=C1CCC2S/C(=C/Nc3ccc(C(F)(F)F)cc3)C(=O)N12` (stereo not given), the max activity was 25.6% (inactive).
